# According to patent US11859235B2, “Sensor, detection method, reagent and kit” (priority 2020, dated 2024):
# Tested on: acetylcholinesterase
# Assay: acetylcholine decomposition by acetylcholinesterase in a mixed system, monitored as pH change rate
# Assay type: biochemical
# Conditions: addition of limonene to the mixed system of acetylcholine and acetylcholinesterase; FIG. 3
# From the text: The reaction of the above formula (1) is a chemical reaction in which acetylcholine acts as a substrate and acetylcholinesterase acts as an enzyme. In general, it is known that a chemical reaction using an enzyme is inhibited by a specific chemical substance for each enzyme, and the reaction rate is reduced or the reaction is stopped. The chemical substance is hereinafter referred to as an “inhibitor”. Here, in the mixed system of acetylcholinesterase and acetylcholine shown in FIG. 2A, when the inhibitor starts to be contained from time t, the cumulative amount of acetylcholine decomposition product after time t changes, that is, the slope of the graph decreases (see FIG. 2B). Therefore, by monitoring the decomposition rate of acetylcholine in the mixed system, it is possible to detect whether or not an inhibitor is present in the mixed system.
# The target substance to be detected by the sensor according to the present embodiment is an inhibitor against the acetylcholine decomposition reaction of acetylcholinesterase. Examples of this inhibitor include limonene. […] Examples of the inhibitor other than limonene against the acetylcholine decomposition reaction of acetylcholinesterase include terpenoids such as ambrein and pinene, flavonoids such as luteolin, alkaloids such as galantamine, and glycosides such as Cynatroside A.
smiles,measurement,value
C=C(C)[C@H]1CC=C(C)CC1 [limonene],effect on the pH change rate of the mixed system of acetylcholine and acetylcholinesterase (inhibitory effect on the acetylcholine decomposition reaction),reduces the pH change rate of the mixed system
